Experiments:
corn = assay: Test B pre/postemergence corn; format: in vivo, Zea mays
Outline: (§1)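 Test chemicals in a non-phytotoxic solvent mixture with surfactant were sprayed preemergence onto planted seeds and postemergence onto plants 2 to 18 cm tall (1- to 4-leaf stage). After twelve to sixteen days in a greenhouse, injury was visually rated against untreated controls from 0 (no effect) to 10 (complete control).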

surinam grass = assay: Test B pre/postemergence surinam grass; format: in vivo, Brachiaria decumbens
Outline: as §1

crabgrass = assay: Test B pre/postemergence crabgrass; format: in vivo, Digitaria sanguinalis
Outline: as §1

cocklebur = assay: Test B pre/postemergence cocklebur; format: in vivo, Xanthium strumarium
Outline: as §1

[1] = Postemergence, Rate 62 g/ha, scale 0 to 10, 0 is no effect, 10 is complete control
[2] = Postemergence, Rate 125 g/ha, scale of 0 to 10 where 0 is no effect and 10 is complete control
[3] = Preemergence, Rate 125 g/ha, scale of 0 to 10 where 0 is no effect and 10 is complete control
[4] = Preemergence, Rate 250 g/ha, scale 0 (no effect) to 10 (complete control)
[5] = Rate 62 g/ha, Preemergence, scale 0 to 10
[6] = Rate 250 g/ha, Postemergence, scale 0 to 10, 0 is no effect, 10 is complete control
[7] = Rate 500 g/ha, Postemergence, scale 0 to 10, 0 is no effect, 10 is complete control
[8] = Rate 500 g/ha, Preemergence, scale 0 to 10 (0 no effect, 10 complete control)
[9] = Preemergence, Rate 62 g/ha, scale of 0 to 10 where 0 is no effect and 10 is complete control
[10] = Preemergence, Rate 250 g/ha, scale of 0 to 10 where 0 is no effect and 10 is complete control
[11] = Preemergence, Rate 500 g/ha, scale of 0 to 10 where 0 is no effect and 10 is complete control
[12] = Rate 62 g/ha, Postemergence, scale of 0 to 10 where 0 is no effect and 10 is complete control
[13] = Rate 125 g/ha, Postemergence, scale 0 to 10
[14] = Rate 125 g/ha, Preemergence, scale of 0 to 10 where 0 is no effect and 10 is complete control
[15] = Rate 500 g/ha, Postemergence, scale 0 to 10, 0 no effect, 10 complete control
[16] = Preemergence, Rate 250 g/ha, scale 0 to 10, 0 is no effect, 10 is complete control
[17] = Rate 125 g/ha, Postemergence, scale 0 (no effect) to 10 (complete control)
[18] = Rate 500 g/ha, Postemergence, scale 0 to 10
[19] = Postemergence, Rate 250 g/ha, scale 0 to 10, 0 no effect, 10 complete control
[20] = Preemergence, Rate 31 g/ha, visual rating, scale 0 to 10 (0 no effect, 10 complete control)
[21] = Preemergence, Rate 62 g/ha, scale 0 to 10, 0 is no effect, 10 is complete control
[22] = Preemergence, Rate 125 g/ha, scale 0 to 10 (0 no effect, 10 complete control)
[23] = Rate 31 g/ha, Postemergence, scale 0 to 10
[24] = Rate 125 g/ha, Postemergence, scale 0 to 10, 0 no effect, 10 complete control

CC(C)N(C(=O)n1oc(=O)n(CC2=NOCCO2)c1=O)c1ccc(Cl)cc1 [Compound 740]
Plant response rating, Corn (corn; [1]): 0
Corn plant response rating (corn; [2]): 0
Plant response rating, Corn (corn; [3]): 0
Corn plant response rating (corn; [4]): 0
Corn plant response rating (corn; [5]): 0
Corn plant response rating (corn; [6]): 0
Corn plant response rating (corn; [7]): 0
Corn plant response rating (corn; [8]): 0
Plant response rating, B. signalgrass (surinam grass; [1]): 0
B. signalgrass plant response rating (surinam grass; [2]): 0
B. signalgrass plant response rating (surinam grass; [6]): 0
B. signalgrass plant response rating (surinam grass; [7]): 2
Plant response rating, Crabgrass (crabgrass; [1]): 0
Crabgrass plant response rating (crabgrass; [2]): 0
Plant response rating, Crabgrass (crabgrass; [3]): 4
Crabgrass plant response rating (crabgrass; [4]): 9
Crabgrass plant response rating (crabgrass; [5]): 4
Crabgrass plant response rating (crabgrass; [6]): 9
Crabgrass plant response rating (crabgrass; [7]): 9
Crabgrass plant response rating (crabgrass; [8]): 9
Plant response rating, Cocklebur (cocklebur; [1]): 0
Cocklebur plant response rating (cocklebur; [2]): 0
Plant response rating, Cocklebur (cocklebur; [3]): 0
Cocklebur plant response rating (cocklebur; [4]): 0
Cocklebur plant response rating (cocklebur; [5]): 0
Cocklebur plant response rating (cocklebur; [6]): 3
Cocklebur plant response rating (cocklebur; [7]): 3
Cocklebur plant response rating (cocklebur; [8]): 0

CCCCc1ccc(N(C(=O)n2oc(=O)n(-c3ccccc3C)c2=O)C(C)C)cc1 [Compound 229]
Corn plant response rating (corn; [9]): 0
Corn plant response rating (corn; [10]): 0
Plant response rating, Corn (corn; [11]): 0
Corn plant response rating (corn; [12]): 0
Corn plant response rating (corn; [13]): 0
Corn plant response rating (corn; [14]): 0
Plant response rating (0 to 10; 0 is no effect, 10 is complete control), Corn (corn; Rate 250 g/ha, Postemergence): 0
Corn plant response rating (corn; [15]): 0
B. signalgrass plant response rating (surinam grass; [9]): 0
B. signalgrass plant response rating (surinam grass; [16]): 0
Plant response rating, B. signalgrass (surinam grass; [11]): 0
B. signalgrass plant response rating (surinam grass; [12]): 0
B. signalgrass plant response rating (surinam grass; [17]): 0
B. signalgrass plant response rating (surinam grass; [14]): 0
Plant response rating (0 to 10; 0 is no effect, 10 is complete control), B. signalgrass (surinam grass; Rate 250 g/ha, Postemergence): 0
B. signalgrass plant response rating (surinam grass; [15]): 0
Crabgrass plant response rating (crabgrass; [9]): 0
Crabgrass plant response rating (crabgrass; [10]): 0
Plant response rating, Crabgrass (crabgrass; [11]): 0
Crabgrass plant response rating (crabgrass; [12]): 0
Crabgrass plant response rating (crabgrass; [13]): 0
Crabgrass plant response rating (crabgrass; [14]): 0
Plant response rating (0 to 10; 0 is no effect, 10 is complete control), Crabgrass (crabgrass; Rate 250 g/ha, Postemergence): 0
Crabgrass plant response rating (crabgrass; [15]): 0
Cocklebur plant response rating (cocklebur; [9]): 0
Cocklebur plant response rating (cocklebur; [10]): 0
Plant response rating, Cocklebur (cocklebur; [11]): 0
Cocklebur plant response rating (cocklebur; [12]): 0
Cocklebur plant response rating (cocklebur; [13]): 0
Cocklebur plant response rating (cocklebur; [14]): 0
Plant response rating (0 to 10; 0 is no effect, 10 is complete control), Cocklebur (cocklebur; Rate 250 g/ha, Postemergence): 0
Cocklebur plant response rating (cocklebur; [15]): 0

COC(=O)Cn1c(=O)on(C(=O)N(c2ccc(F)cc2)C(C)C)c1=O [Compound 215]
Corn plant response rating (corn; [9]): 0
Corn plant response rating (corn; [10]): 0
Plant response rating, Corn (corn; [11]): 2
Corn plant response rating (corn; [12]): 0
Corn plant response rating (corn; [13]): 0
Corn plant response rating (corn; [14]): 0
Plant response rating (0 to 10; 0 is no effect, 10 is complete control), Corn (corn; Rate 250 g/ha, Postemergence): 0
Corn plant response rating (corn; [18]): 0
B. signalgrass plant response rating (surinam grass; [9]): 0
B. signalgrass plant response rating (surinam grass; [16]): 2
Plant response rating, B. signalgrass (surinam grass; [11]): 2
B. signalgrass plant response rating (surinam grass; [12]): 0
B. signalgrass plant response rating (surinam grass; [17]): 0
B. signalgrass plant response rating (surinam grass; [14]): 0
Plant response rating (0 to 10; 0 is no effect, 10 is complete control), B. signalgrass (surinam grass; Rate 250 g/ha, Postemergence): 3
B. signalgrass plant response rating (surinam grass; [15]): 3
Crabgrass plant response rating (crabgrass; [9]): 3
Crabgrass plant response rating (crabgrass; [10]): 4
Plant response rating, Crabgrass (crabgrass; [11]): 4
Crabgrass plant response rating (crabgrass; [12]): 0
Crabgrass plant response rating (crabgrass; [13]): 0
Crabgrass plant response rating (crabgrass; [14]): 4
Plant response rating (0 to 10; 0 is no effect, 10 is complete control), Crabgrass (crabgrass; Rate 250 g/ha, Postemergence): 2
Crabgrass plant response rating (crabgrass; [18]): 2
Cocklebur plant response rating (cocklebur; [9]): 0
Cocklebur plant response rating (cocklebur; [10]): 0
Plant response rating, Cocklebur (cocklebur; [11]): 0
Cocklebur plant response rating (cocklebur; [12]): 0
Cocklebur plant response rating (cocklebur; [13]): 0
Cocklebur plant response rating (cocklebur; [14]): 0
Plant response rating (0 to 10; 0 is no effect, 10 is complete control), Cocklebur (cocklebur; Rate 250 g/ha, Postemergence): 0
Cocklebur plant response rating (cocklebur; [18]): 0

CCN(C(=O)n1oc(=O)n(-c2ccccc2OC)c1=O)C1CCCCC1 [Compound 29]
Corn plant response rating (corn; [1]): 0
Corn plant response rating (corn; [19]): 0
Corn plant response rating (corn; [20]): 0
Plant response rating, Corn (corn; [21]): 0
Plant response rating, Corn (corn; [22]): 0
Plant response rating, Corn (corn; [10]): 0
Corn plant response rating (corn; [23]): 0
Corn plant response rating (corn; [24]): 0
B. signalgrass plant response rating (surinam grass; [1]): 0
B. signalgrass plant response rating (surinam grass; [19]): 0
B. signalgrass plant response rating (surinam grass; [20]): 0
Plant response rating, B. signalgrass (surinam grass; [21]): 0
Plant response rating, B. signalgrass (surinam grass; [22]): 0
Plant response rating, B. signalgrass (surinam grass; [10]): 0
B. signalgrass plant response rating (surinam grass; [23]): 0
B. signalgrass plant response rating (surinam grass; [24]): 0
Crabgrass plant response rating (crabgrass; [1]): 0
Crabgrass plant response rating (crabgrass; [19]): 0
Crabgrass plant response rating (crabgrass; [20]): 0
Plant response rating, Crabgrass (crabgrass; [21]): 3
Plant response rating, Crabgrass (crabgrass; [22]): 4
Plant response rating, Crabgrass (crabgrass; [10]): 7
Crabgrass plant response rating (crabgrass; [23]): 0
Crabgrass plant response rating (crabgrass; [24]): 0
Cocklebur plant response rating (cocklebur; [1]): 0
Cocklebur plant response rating (cocklebur; [19]): 0
Cocklebur plant response rating (cocklebur; [20]): 0
Plant response rating, Cocklebur (cocklebur; [21]): 0
Plant response rating, Cocklebur (cocklebur; [22]): 0
Plant response rating, Cocklebur (cocklebur; [10]): 0
Cocklebur plant response rating (cocklebur; [23]): 0
Cocklebur plant response rating (cocklebur; [24]): 0
